Results as given in patent US20160095867A1, “BET INHIBITION THERAPY FOR HEART DISEASE” (DANA-FARBER CANCER INSTITUTE, INC., priority 2013, published 2016).

The compounds below were run on NRVM (assay: PE-mediated cardiomyocyte hypertrophy in NRVM (cell area measurement)). Details: equimolar doses (500 nM), PE 100 μM, 48 hours.
Assay type: cell-based, rat
Procedure: NRVM were isolated from the hearts of 2 day old Sprague-Dawley rat pups (Charles River) and maintained under standard conditions as described (Haldar et al., 2010). The cells were differentially plated for 1.5 h in cell culture dishes to remove contaminating non-myocytes. Unless otherwise stated, NRVM were plated at a density of 10^5 cells/mL. Cells were initially plated in growth medium (DMEM supplemented with 5% FBS, 100 U/mL penicillin-streptomycin, and 2 mM L-glutamine) for 24-36 hours and maintained in serum-free media thereafter (DMEM supplemented with 0.1% BSA, 1% insulin-transferrin-selenium liquid media supplement (Sigma 13146), 100 U/mL penicillin-streptomycin, and 2 mM L-glutamine). Media was changed every 2-3 days. Prior to stimulation with agonists, NRVM were maintained in serum-free medium for 48-72 hours. For hypertrophic stimulation, NRVM were incubated with JQ1 versus DMSO at indicated concentrations for 6 h followed by stimulation with PE (100 μM) for indicated timepoints.
NRVM were plated on glass coverslips in 6-well dishes at a density of 10^5 cells/mL. After treatments, cells were briefly fixed in PBS containing 2% PFA, permeabilized with PBST/0.1% Triton X-100, and blocked in PBST/5% horse serum. Primary antibody was anti-sarcomeric α-actinin (Sigma A7811) at 1:800. Fluorophore-tagged anti-mouse secondary antibody (α-mouse Alexa 488 green) was used at 1:1000 dilution. Coverslips were mounted on glass slides with mounting media containing DAPI. Quantitation of cardiomyocyte cell surface area was performed on α-actinin-stained cardiomyocytes using fluorescent microscopy and NIH Image J software as previously described (Liang et al., 2001). Analysis consisted of at least 100 cardiomyocytes in 20-30 fields at 400× magnification. This process was replicated in a least three independent experiments, and the data were combined.
For `COc1cc(OC)c2c(=O)[nH]c(-c3cc(C)c(OCCO)c(C)c3)nc2c1` [RVX-208], the “inhibition of agonist-induced cardiomyocyte hypertrophy (cell area)” value (from here on “inhibition”) was “inhibition of agonist-induced cardiomyocyte hypertrophy was indeed a class effect”. For `COc1cc2c(cc1-c1c(C)noc1C)ncc1[nH]c(=O)n([C@H](C)c3ccccn3)c12` [iBET-151], the “inhibition” value was “inhibition of agonist-induced cardiomyocyte hypertrophy was indeed a class effect”. With `CCNC(=O)C[C@@H]1N=C(c2ccc(Cl)cc2)c2cc(OC)ccc2-n2c(C)nnc21` [iBET] the “inhibition” value was “inhibition of agonist-induced cardiomyocyte hypertrophy was indeed a class effect”.
